Test results published in ChEMBL document CHEMBL2169839 (J Med Chem, 2012).
Residue numbers refer to the chain shown, from its start. pIC50, pKi: −log10 of the molar value.

Legend:
[1] = target: T1, Aldo-keto reductase family 1 member C2 (Homo sapiens, UniProt P52895)
T1 sequence (P52895 whole entry): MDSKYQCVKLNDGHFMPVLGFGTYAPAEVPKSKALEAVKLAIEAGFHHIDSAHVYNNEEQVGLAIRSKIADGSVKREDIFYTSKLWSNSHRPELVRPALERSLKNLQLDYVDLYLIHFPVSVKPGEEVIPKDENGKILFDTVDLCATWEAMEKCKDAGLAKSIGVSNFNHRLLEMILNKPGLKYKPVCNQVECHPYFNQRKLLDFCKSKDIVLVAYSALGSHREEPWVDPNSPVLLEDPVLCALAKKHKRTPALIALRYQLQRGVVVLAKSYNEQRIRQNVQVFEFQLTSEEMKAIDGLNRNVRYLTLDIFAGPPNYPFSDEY

[2] = target: T2, Aldo-keto reductase family 1 member C3 (Homo sapiens, UniProt P42330); test: biochemical
T2 sequence (P42330 whole entry): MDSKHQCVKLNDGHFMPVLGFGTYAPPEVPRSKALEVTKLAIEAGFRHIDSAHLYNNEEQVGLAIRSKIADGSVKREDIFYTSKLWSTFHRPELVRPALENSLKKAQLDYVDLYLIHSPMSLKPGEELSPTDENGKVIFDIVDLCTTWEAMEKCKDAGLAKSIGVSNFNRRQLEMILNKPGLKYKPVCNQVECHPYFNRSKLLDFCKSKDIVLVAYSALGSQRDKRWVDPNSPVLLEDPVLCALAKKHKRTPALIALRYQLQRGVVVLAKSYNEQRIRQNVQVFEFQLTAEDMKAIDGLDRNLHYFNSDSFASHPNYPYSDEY
Description: Inhibition of human recombinant N-terminal His6-tagged AKR1C3 expressed in Escherichia coli BL21(DE3) cells using 8-Acetyl-2,3,5,6-tetrahydro-1H,4H-11-oxa-3a-aza-benzo[de]anthracen-10-one as substrate after 1 hr by fluorimetric analysis

[3] = target: T3, Aldo-keto reductase family 1 member C1 (Homo sapiens, UniProt Q04828)
T3 sequence (Q04828 whole entry): T1 sequence (P52895 whole entry) with V38T, H47R, V54L, S87C, M151V, H170R, L172Q

[4] = target: T2, Aldo-keto reductase family 1 member C3; test: Inhibition of AKR1C3 overexpressed in human HCT116 cells assessed as inhibition of PR-104A conversion to hydroxylamine after 2 hrs by LC-MS/MS analysis
[5] = target: T4, Aldo-keto reductase family 1 member C4 (Homo sapiens, UniProt P17516)
T4 sequence (P17516 whole entry): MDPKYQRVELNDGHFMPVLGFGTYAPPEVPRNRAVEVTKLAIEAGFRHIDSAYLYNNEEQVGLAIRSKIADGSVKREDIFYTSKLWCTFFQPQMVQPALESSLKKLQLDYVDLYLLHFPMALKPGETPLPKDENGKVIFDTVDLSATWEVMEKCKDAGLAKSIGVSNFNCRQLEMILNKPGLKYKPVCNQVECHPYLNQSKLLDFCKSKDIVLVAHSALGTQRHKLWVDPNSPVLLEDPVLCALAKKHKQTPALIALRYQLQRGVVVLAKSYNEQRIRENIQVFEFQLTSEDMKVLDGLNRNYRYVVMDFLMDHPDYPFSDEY

[6] = target: T3, Aldo-keto reductase family 1 member C1; test: Inhibition of human recombinant AKR1C1 expressed in Escherichia coli BL21(DE3) using phenanthrenequinone as substrate by spectrophotometric analysis
[7] = target: T4, Aldo-keto reductase family 1 member C4; test: Inhibition of human recombinant AKR1C4 expressed in Escherichia coli BL21(DE3) using phenanthrenequinone as substrate by spectrophotometric analysis
[8] = target: T2, Aldo-keto reductase family 1 member C3

| Compound | pIC50 [1] | pIC50 [2] | pIC50 [3] | pIC50 [4] | pIC50 [5] | pKi [6] | pKi [7] | pKi [8] |
| --- | --- | --- | --- | --- | --- | --- | --- | --- |
| O=C(O)c1ccc(S(=O)(=O)N2CCc3ccccc3C2)cc1 | < 4.52 | 5.91 | < 4.52 | < 6.00 | < 4.52 |  |  |  |
| O=C(c1cccc(S(=O)(=O)N2CCc3ccccc3C2)c1)N1CCOCC1 | < 4.52 | 7.11 | < 4.52 | 7.89 | < 4.52 |  |  |  |
| O=C(O)c1cccc(S(=O)(=O)NCCc2cccc(Cl)c2)c1 | < 4.52 | 6.68 | < 4.52 | < 6.00 | < 4.52 |  |  |  |
| COc1ccc2c(c1)CCN(S(=O)(=O)c1cccc(C(=O)O)c1)C2 | < 4.52 | 7.42 | < 4.52 | 6.41 | < 4.52 |  |  |  |
| O=C(O)c1cccc(S(=O)(=O)N2CCc3ccc(F)cc3C2)c1 | < 4.52 | 7.68 | < 4.52 | 7.62 | < 4.52 |  |  |  |
| O=C(O)c1cccc(S(=O)(=O)N2CCc3cc([N+](=O)[O-])ccc3C2)c1 | < 4.52 | 7.66 | < 4.52 | < 6.00 | < 4.52 |  |  |  |
| O=C(O)c1cccc(S(=O)(=O)N2Cc3ccccc3C2)c1 | < 4.52 | 7.33 | 5.41 | 6.05 | < 4.52 |  |  |  |
| Cc1ccc2c(c1)CCN(S(=O)(=O)c1cccc(C(=O)O)c1)C2 | < 4.52 | 7.77 | < 4.52 | 7.28 | < 4.52 |  |  |  |
| O=C(O)c1cccc(S(=O)(=O)N2CCc3cc(O)ccc3C2)c1 | < 4.52 | 7.57 | < 4.52 | < 6.00 | < 4.52 |  |  |  |
| CC/C=C\C[C@H]1C(=O)CC[C@@H]1CC(=O)O [JASMONIC ACID] |  |  |  |  |  | 3.97 | 4.43 | 3.79 |
| O=S(=O)(c1cccc(-c2nnn[nH]2)c1)N1CCc2ccccc2C1 | < 4.52 | 8.02 | < 4.52 | 6.05 | < 4.52 |  |  |  |
| O=C(O)c1cccc(S(=O)(=O)N2CCc3c(cccc3[N+](=O)[O-])C2)c1 | < 4.52 | 8.05 | 4.61 | 7.54 | < 4.52 |  |  |  |
| O=C(O)c1cccc(S(=O)(=O)N2CCc3ccc(Cl)cc3C2)c1 | < 4.52 | 7.70 | < 4.52 | < 6.00 | < 4.52 |  |  |  |
| O=C(O)[C@H]1CCCN(S(=O)(=O)c2ccc3ccccc3c2)C1 | < 5.52 | 6.40 | < 4.52 | < 6.00 | < 5.52 |  |  |  |
| COc1cccc2c1CCN(S(=O)(=O)c1cccc(C(=O)O)c1)C2 | < 4.52 | 7.80 | < 4.52 | 7.41 | < 4.52 |  |  |  |
| O=C(O)C(=O)Nc1cccc(S(=O)(=O)N2CCc3ccccc3C2)c1 | < 4.52 | 7.21 | < 4.52 | < 6.00 | < 4.52 |  |  |  |
| CC1Cc2ccccc2CN1S(=O)(=O)c1cccc(C(=O)O)c1 (stereo not drawn) | < 4.52 | 8.07 | < 4.52 | 6.75 | < 4.52 |  |  |  |

| Compound | pIC50 [1] | pIC50 [2] | pIC50 [3] | pIC50 [4] | pIC50 [5] | pKi [6] | pKi [7] | pKi [8] |
| --- | --- | --- | --- | --- | --- | --- | --- | --- |
| O=C(O)c1cccc(S(=O)(=O)N2CCc3cccc(Cl)c3C2)c1 | 4.92 | 7.72 | 6.13 | 7.55 | < 4.52 |  |  |  |
| CC1c2ccccc2CCN1S(=O)(=O)c1cccc(C(=O)O)c1 (stereo not drawn) | < 4.52 | 7.57 | < 4.52 | 7.62 | < 4.52 |  |  |  |
| Nc1cccc2c1CCN(S(=O)(=O)c1cccc(C(=O)O)c1)C2 | < 4.52 | 7.28 | < 4.52 | 6.71 | < 4.52 |  |  |  |
| O=C(NCCc1ccncc1)c1cccc(S(=O)(=O)N2CCc3ccccc3C2)c1 | < 4.52 | 7.24 | < 4.52 | 7.46 | < 4.52 |  |  |  |
| O=C(O)c1cccc(S(=O)(=O)N2CCc3c(O)cccc3C2)c1 | < 4.52 | 7.80 | 4.59 | 6.34 | < 4.52 |  |  |  |
| O=C1CCCN1c1ccc(S(=O)(=O)N2CCc3ccccc3C2)cc1 | < 4.52 | 7.38 | < 4.52 | 7.62 | < 4.52 |  |  |  |
| O=C(O)c1cn(S(=O)(=O)c2ccc(Br)cc2)c2ccccc12 | < 4.52 | 7.17 | 6.08 | 6.39 | < 4.52 |  |  |  |
| O=C(O)c1cccc(S(=O)(=O)N2CCc3sccc3C2)c1 | < 4.52 | 7.60 | < 4.52 | 7.47 | < 4.52 |  |  |  |
| O=C(O)[C@@H]1CCCN(S(=O)(=O)c2ccc3ccccc3c2)C1 | < 4.52 | 7.49 | < 4.52 | < 6.00 | < 4.52 |  |  |  |
| O=C(O)c1cccc(S(=O)(=O)N2CCc3cc(Cl)ccc3C2)c1 | < 4.52 | 8.06 | 5.13 | 7.41 | < 4.52 |  |  |  |
| O=C(O)c1cccc(S(=O)(=O)N2CCc3c(Cl)cccc3C2)c1 | 5.03 | 7.96 | < 4.52 | 7.80 | < 4.52 |  |  |  |
| Cc1ccc2c(c1)CN(S(=O)(=O)c1cccc(C(=O)O)c1)CC2 | < 4.52 | 7.89 | < 4.52 | 7.54 | < 4.52 |  |  |  |
| O=C(O)c1cccc(S(=O)(=O)NCCc2ccc(Cl)cc2)c1 | < 4.52 | 6.85 | < 4.52 | < 6.00 | < 4.52 |  |  |  |
| O=C(O)c1cccc(S(=O)(=O)N2CCCc3ccccc32)c1 | < 4.52 | 6.70 | < 4.52 | < 6.00 | < 4.52 |  |  |  |
| O=C(O)c1cccc(S(=O)(=O)N2CC=CCC2)c1 | < 4.52 | 6.41 | < 4.52 | < 6.00 | < 4.52 |  |  |  |
| O=C(O)c1cccc(S(=O)(=O)N2CCc3c(I)cccc3C2)c1 | < 4.52 | 7.85 | < 4.52 | 7.70 | < 4.52 |  |  |  |
| COc1cc2c(cc1OC)CN(S(=O)(=O)c1cccc(C(=O)O)c1)CC2 | < 4.52 | 6.80 | < 4.52 | < 6.00 | < 4.52 |  |  |  |
